Reference: article PMC5893597, “Structural mechanism for nucleotide-driven remodeling of the AAA-ATPase unfoldase in the activated human 26S proteasome” (Nature Communications, 2018)

System: T1, human 26S proteasome AAA-ATPase heterohexamer (Rpt1-6) in the holoenzyme
T1 construct: gene PSMC2; endogenous subunits in doubly capped 26S holoenzyme (28-subunit CP, 19-subunit RPs)
Assay: cryo-EM structure
Format: binding
Conditions: 1 mM ATP-γ-S, 1 mM MgCl2, pH 7.5; Walker A nucleotide sites of Rpt subunits

**Q.** `Nc1ncnc2c1ncn2[C@@H]1O[C@H](COP(=O)(O)OP(=O)(O)OP(O)(O)=S)[C@@H](O)[C@H]1O` [ATP-γ-S] was tested. Which cryo-EM structure did it give?
**A.** Its cryo-EM structure is “ATP-γ-S was modeled into the nucleotide densities of four Rpt subunits in each state”.
